# Where “and” joins values, the source holds several entries; their conditions need not be identical. Equal values may be shown once. Read-outs that look alike come from different tables or passages of the source.
# Tests used:
# [1] = tested on: MDA-MB-435S.luc cells; format: cell-based, human
# Text: This example describes screening for cell toxicity (IC50) and hemolytic activity using a human breast cancer cell line.
# The human melanoma cell line MDA-MB-435S.luc, which over expresses chorionic gonadotrophin (CG) and luteinizing hormone-releasing hormone (LHRH) receptors, was used to screen at passage numbers 248-252. The MDA-MB-435S.luc cell line was constructed from the MDA-MB-435S cell line obtained from the American Type Cell Culture Collection by stable transfection with the plasmid PRC/CMV-luc containing the Photinus pyralis luciferase gene and an […] resistance gene by lipofection. The stably transfected cell line was selected using G418 and the clones with the highest expression for the luciferase gene were tested for their LH and LHRH receptor expression.
# (§1) MDA-MB-435S.luc cells were grown in Leibovitz's L 15 medium, 10% fetal bovine serum, 0.01 mg/ml bovine insulin, 100 IU/ml penicillin, 100 microg/ml streptomycin. The cells were cultured in tight closed flasks. The incubations were conducted using 96 well plates at 10,000 cells per well. Cells were typically seeded into 96 well plates and media was replaced after 48 hours of incubation. Each assay was conducted at increasing concentrations of 0, 0.001, 0.01, 0.05, 0.1, 0.5, 1, 2, 5, 10 and 100 micromolar doses of lytic peptide-binding domain conjugate. Each lytic peptide-binding domain conjugate provided in lyophilized form and was freshly dissolved in saline and added to cells. The duration of incubation was typically 24 h, and cell viability assays were conducted using formazan conversion assays (MTT assay). Controls contained saline or 0.1% triton as reference for 0 and 100% cell death, respectively.
# Data were processed and analyzed using Graph Pad Prizm 4™ software (Graph Pad Prizm, Inc). Statistical analysis for significance was determined by a two-tailed Student's T-test. Each study was conducted to achieve an N of at least 8.
# [2] = tested on: ID8; assay: Cytotoxicity in ID8 murine ovarian cancer cells (24 h); format: cell-based; details: ID8, 24 h; read-out: In vitro activity (IC50)
# Experimental: (§2) Murine ovarian cancer cell lines (ID8, IG10, IF5, and 2Cl2) were grown in RPMI 1640 media with 10% Fetal Bovine Serum. Cells were typically seeded (3000 cells per well) into 96 well plates and media was replaced after 48 hours of incubation. […] Phor18-LHRH was provided in lyophilized form was dissolved in saline and added to cells. The duration of incubation was 24 h at 37° C. Cell viability was assessed after 24 hours using a luminometric assays (Promega, CellTiter-0Glo 2.0, G9243). Controls contained saline or 0.1% triton as reference for 0 and 100% cell death, respectively.
# (§3) Data were processed and analyzed using GraphPad Prism version 7.00 for Windows (GraphPad Software, San Diego California). Statistical analysis for significance was determined by a two-tailed Student's T-test. Each study was conducted to achieve an […] of at least 6.
# (§4) In vitro activities were expressed as IC50 values for each cell line, time point and compound tested that were calculated using the Hill equation (Graph Pad Prizm software).
# [3] = tested on: SKOV-3 cells; assay: Time course of cytotoxicity in SKOV-3 cells (MTT); format: cell-based, human
# Text: Membranes of non-cancerous cell lines are neutral and are resistant to cytolytic peptides, in contrast to cancer cell lines, which have a high phosphatidic acid content in their outer membrane.
# The melanoma cell line studied was MDA-MB-435S (estrogen receptor alpha negative), breast cancer cell lines MCF-7 and T47D (estrogen receptor alpha positive), ovarian cancer cell lines (OVCAR-3 and SKOV-3), prostate cancer (LNCaP), the non-malignant breast epithelial cell line MCF-10A and the mouse fibroblast cell line NIH:3T3.
# Cells were seeded into 96 well plates at a density of 10,000 cells/well. […] Controls contained USP saline or 0.1% TritonX-100™ as reference for 0 and 100% cell death, respectively. Incubations were terminated by removing the culture media after 2 minutes, 5 minutes, 15 minutes, 30 minutes, 1 hour, 2 hours, 6 hours, 24 and 48 hours. Cell viability was assessed through formazan conversion assay (MTT assay, (CellTiter 96 Aqueous One, Promega # G3582). Formazan conversion was determined using a BioRad Benchmark Plus microplate spectrophotometer dual wavelengths at 490/630 nm at room temperature).
# Data were calculated as fraction of absorption in TritonX-100™ containing wells representing 100% cell death versus 0% cell death in saline containing wells. Cytotoxicity was determined as ICso using GraphPad Prism version 5.01 for Windows, GraphPad Software, San Diego California USA according to the program for sigmoidal dose response with variable slope using constraint values of 0 and 100%. 4 wells of each individual set of two 96 well plates were compared and analyzed. Statistical analysis for significance was determined by a two-tailed Student's T-test.
# [4] = tested on: OVCAR-3; assay: Cytotoxicity in OVCAR-3 ovarian cancer cells; format: cell-based; details: OVCAR-3 ovarian cancer cell line; read-out: IC50 in Human Cancer Cell Lines
# Experimental: as §1
# (§5) To ascertain the IC50 of various fusion constructs on different human cancer cell lines compared to cisplatinum, IC50 of fusion constructs were evaluated as in Table 3.
# [5] = tested on: MDA-MB-435S.luc xenograft; assay: MDA-MB-435S.luc xenograft, LHRH fusion constructs; format: in vivo, Nu/Nu mice
# Experimental: For LHRH fusion constructs, the mouse xenograft model for breast cancer was used. In brief. Nu/Nu female mice, outbred strain, age 5 weeks (Charles River) were injected subcutaneously with a MDA-MB-435S.luc/Matrigel suspension (1×10^6 cells). Treatment was started on day 21 after tumor cell injection and continued on day 26 and 29. The doses for weekly fusion construct injections were 2, 0.2 and 0.02 mg/kg body weight, given as a bolus single injection. All mice were necropsied 34 days after tumor cell injection-baseline values for tumor weights were obtained by sacrificing 8 mice at treatment start. Primary tumors, liver, kidney, pancreas, heart, lung, and spleen were collected and prepared for histological evaluation in formalin. Tumor weights were recorded at necropsy, part of the tumors were frozen at −80 ° C. for luciferase assay determination.
# Characteristics of tumors at necropsy are summarized in FIG. 10; (A) tumor weight, (B) changes of tumor weights compared to baseline, (C) total number of live tumor cells, (D) changes of total live tumor cells compared to baseline, and (E) bodyweights at baseline and necropsy. Viability of tumor cells was determined at the end of the study when tumors were measured for luciferase activity. Treatment efficacy was calculated as difference between measurements at the beginning of treatment compared to the measurement at the end of study (FIG. 10B and 10D).
# [6] = tested on: LNCaP; assay: Cytotoxicity in LNCaP prostate cancer cells; format: cell-based; details: LNCaP prostate cancer cell line; read-out: IC50 in Human Cancer Cell Lines
# Experimental: as §1, §5
# [7] = tested on: IF5; assay: Cytotoxicity in IF5 murine ovarian cancer cells (24 h); format: cell-based; details: IF5, 24 h; read-out: In vitro activity (IC50)
# Experimental: as §2, §3, §4
# [8] = MDA-MB-435S.luc cells, 24 h, MTT, read-out: IC50
sequence,measurement,setting,value
KFAKFAKKFAKFAKKFAKQHWSYGLRPG [Phor18-LHRH],Increased in vitro activity fold,"[1]; IC50 of 33 (Phor21-βCG-ala, 2.31 μM)/IC50 peptide, MDA-MB-435S.luc",2.65 fold
same,IC50,[1]; [8],870 ± 110 nM
same,IC50,"[1]; MDA-MB-435S.luc cells, places that print μm (Table 2: lytic peptide row + hinge column + ligand section), read-out: IC50",870 nM
same,IC50,"[1]; MDA-MB-435S.luc melanoma cell line, read-out: IC50 in Human Cancer Cell Lines",860 ± 160 nM
same,IC50,[2],1370 nM
same,incubation time to maximal efficacy,[3]; SKOV-3 cells,24 h
same,IC50,[4],3000 nM
same,"treatment efficacy (tumor weight, live tumor cells)","[5]; 0.02, 0.2 and 2 mg/kg, vs baseline, saline and Phor21-βCG-ala",Equally effective as Phor21-βCG-ala
same,tumor volume,[5]; during treatment and after 30 days,smallest tumor volumes
same,concentrations resulting in tumor weights similar to baseline,"[5]; mouse, in vivo",0.2 mg/kg
same,In vivo Performance compared to 33,"[5]; tumor weight and live tumor cell reduction vs baseline compared to peptide 33, LHRH construct study",1
same,IC50,[6],1550 ± 80 nM
same,IC50,[7],1010 nM
"KFAKFAKKFAKFAKKFAK [Phor18, reference compound]",IC50,[1]; [8],2060 ± 500 nM
same,IC50,"[3]; SKOV-3 (SKOV-3 and HEK 1A), 24 hours, read-out: IC50",11800 nM
same,IC50,"[3]; SKOV-3 (p40), listed as CLIP71, read-out: IC50 with increasing incubation time",86000 nM and 96000 nM and 53000 nM and 50000 nM

# — patent publication US20240228542A1, “LYTIC DOMAIN FUSION CONSTRUCTS, CHECKPOINT INHIBITORS, AND METHODS OF MAKING AND USING SAME” (A28 Therapeutics Inc., priority 2020, published 2024)
